Values quoted from earlier work as cited in patent US6531463B1, “Method for producing a fat mixture” (Spice Sciences Oy, priority 1998, dated 2003).

Tests used:
[1] = test system: absorption of cholesterol
cholesterol levels [2] = conditions: preparations studied in 1950's and 1960's
[3] = test system: absorption of cholesterol; conditions: for decrease of the absorption of cholesterol: nine adult patients, 5 days, 500 mg of cholesterol, 1 gram of β-sitosterol or 2 grams of β-sitosteryl oleate
[4] = test system: cholesterol levels, atherogenesis; conditions: added to the feed of cholesterol fed rabbits
serum cholesterol = conditions: in vivo
[5] = administered orally
cholesterol levels [6] = conditions: added to the feed of cholesterol fed chicken

Compound | absorption of cholesterol ([1]; female rats (Uchita et al.)) | cholesterol balance in plasma and liver ([1]; female rats (Uchita et al.)) | inhibition of absorption of cholesterol ([1]; rats (Vahouny et al.)) | lowering of cholesterol levels (cholesterol levels [2]) | decrease of the absorption of cholesterol [3] | atherogenesis [4] | cholesterol levels [4] | lowering of the LDL-cholesterol level (serum cholesterol) | lowering of the total serum cholesterol level (serum cholesterol) | reduction of the absorption of cholesterol from food ([3]; 1 gram of β-sitosterol, food containing 500 mg of cholesterol) | proportion absorbed [5] | cholesterol levels (cholesterol levels [6])
sitosterol | inhibits absorption of cholesterol | lowers cholesterol balance in plasma and liver | 54% | about 10% |  |  |  |  |  |  |  | 
CCCCCCCC/C=C\CCCCCCCC(=O)O[C@H]1CC[C@@]2(C)C(=CC[C@H]3[C@@H]4CC[C@H]([C@H](C)CC[C@@H](CC)C(C)C)[C@@]4(C)CC[C@@H]32)C1 [β-sitoteryl oleate, β-sitosteryl oleate] |  |  |  |  | 33% |  |  |  |  |  |  | 
CC[C@H](CC[C@@H](C)[C@H]1CC[C@H]2[C@@H]3CC=C4C[C@@H](O)CC[C@]4(C)[C@H]3CC[C@]12C)C(C)C [β-sitosterol, stigmasta-5-en-3β-ole] |  |  |  |  | 42% | prevented atherogenesis | cholesterol levels were lowered | 19% | 10-15% | 42% | less than 5% | cholesterol levels were lowered
